Measurements as given in patent publication US20110165279A1, “SWEET POTATO TRYPSIN INHIBITOR AND METHODS FOR TREATING INFLAMMATION AND HYPERALGESIA” (Academia Sinica Office of Public Affairs (Technology …, priority 2010, published 2011).

Columns and labels:
[1] = system: hind paw edema induced by λ-carrageenan in mice; assay: λ-carrageenan-induced hind paw edema test in mice; assay type: in vivo, mouse; conditions: 10 mg/kg i.p., 3, 4 and 5 hours after Carr injection; p<0.01 or p<0.001
Experimental: Male ICR mice (18-25 g) were obtained from the BioLASCO Taiwan Co., Ltd. The animals were kept in plexiglass cages under a constant temperature of 22±1° C., relative humidity 55±5%, and a light regime of 12 hours dark/12 hour light for at least 2 weeks before the experiment. They were given food and water ad libitum. All experimental procedures were performed according to the NIH Guide for the Care and Use of Laboratory Animals. The placebo groups were given subcutaneous 0.1 ml/10 g saline using a bent blunted 27-gauge needle connected to a 1 ml syringe. All tests were conducted under the guidelines of the International Association for the Study of Pain [Zimmermann, M., Ethical guidelines for investigations of experimental pain in conscious animals. Pain. 1983, 16, 109-110].
Male ICR mice (eight per group), 18 g to 25 g, were fasted for 24 hours before the experiment with free access to water. […] Paw volume was measured immediately after Carr injection and at 1, 2, 3, 4 and 5 hours intervals after the administration of the edematogenic agent using a plethysmometer (model 7159, Ugo Basile, Varese, Italy). The degree of swelling induced was evaluated by the ratio a/b, where a is the volume of the right hind paw after Carr treatment, and b is the volume of the right hind paw before Carr treatment.

mouse hind footpad = assay: Histological examination of mouse hind footpad after carrageenan (H&E, neutrophil counts); assay type: in vivo; conditions: biopsies 5 hours after Carr, IbTI 40 mg/kg, indomethacin 10 mg/kg
Experimental: For histological examination, biopsies of paws were taken 5 hours after Carr injection into the plantar side of right hind paws. The tissue slices were fixed in solution with 1.85% formaldehyde and 1% acetic acid for 1 week at room temperature, then dehydrated by graded ethanol and embedded in Paraffin (Sherwood Medical, St. Louis, Mo., USA). Sections (thickness 5 μm) were deparaffinized with xylene and stained with hematoxylin and eosin. All samples were observed and photographed with BH2 Olympus microscopy (Japan). Every 3-5 tissue slices were randomly chosen from control, Carr, Indo and IbTI-treated (40 mg/kg) groups. The numbers of neutrophils were counted in each scope (400×) and average counts from 5 scopes of each tissue slice were calculated.

Compound: COc1ccc2c(c1)c(CC(=O)O)c(C)n2C(=O)c1ccc(Cl)cc1 [Indomethacin, indomethacin]
- paw edema [1]: significantly decreased paw edema
- histological appearance of hind footpad vs Carr only (mouse hind footpad): significantly reduced the level of hemorrhage, edema and inflammatory cell infiltration
- neutrophil numbers in paw tissue vs Carr-treated group (mouse hind footpad; p<0.01): significantly decreased the number of inflammatory neutrophil infiltration
